One series has as its target T1, human CCK2R (Homo sapiens, UniProt P32239).
T1 construct: expressed in transfected cells; host or cells: A431 human epidermoid carcinoma cells (A431-CCK2R), plasmid pCR3.1, provided by Dr. Luigi Aloj
T1 sequence (P32239 1-447): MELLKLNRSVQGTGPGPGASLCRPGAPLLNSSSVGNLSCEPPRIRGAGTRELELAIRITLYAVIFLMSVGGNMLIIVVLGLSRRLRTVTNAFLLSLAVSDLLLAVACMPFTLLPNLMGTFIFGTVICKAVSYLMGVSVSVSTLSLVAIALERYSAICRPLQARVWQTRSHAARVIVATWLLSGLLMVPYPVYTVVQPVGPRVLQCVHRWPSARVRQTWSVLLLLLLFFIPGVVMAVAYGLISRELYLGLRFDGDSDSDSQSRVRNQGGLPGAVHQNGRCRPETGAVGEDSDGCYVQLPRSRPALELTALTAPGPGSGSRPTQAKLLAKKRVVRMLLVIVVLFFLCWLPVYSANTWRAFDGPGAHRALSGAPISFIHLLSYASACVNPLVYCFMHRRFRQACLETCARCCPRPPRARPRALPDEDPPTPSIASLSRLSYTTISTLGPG
The series is described as follows: CCK2R competition binding assay against [125I]Tyr12-gastrin-I on A431-CCK2R cells. Conditions: displacement of [125I]Tyr12-gastrin-I, A431-CCK2R cells, 1 h at RT; read-out: IC50. The procedure:
Affinity for CCK2R was studied in A431 human epidermoid carcinoma cells stably transfected with the plasmid pCR3.1 containing the full coding sequence for the human CCK2R (A431-CCK2R) kindly provided by Dr. Luigi Aloj (Aloj L et al., J Nucl Med 2004, 45: 485-494). […] Radioiodination of gastrin-1 was carried out using the chloramine-T method. Non-carrier-added [^125I-Tyr^12]gastrind was obtained by HPLC purification and stored in aliquots at −20° C. Binding assays were carried out in 96-well filter plates (MultiScreenHTS-FB, Merck Group, Darmstadt, Germany) pretreated with 10 mM TRIS/139 mM NaCl pH 7.4 (2×250 μl). For the assay a number of 200,000-400,000 A431-CCK2R cells per well was prepared in 35 mM HEPES buffer pH 7.4 containing 10 mM MgCl2, 14 μM bacitracin and 0.5% BSA (a hypotonic solution disturbing the integrity of the cell membranes). The cells were incubated in triplicates with increasing concentrations of the peptidomimetics (0.0003 to 10,000 nM, for example 0.001 to 1000 nM) and [^125I-Tyr^12]gastrin-I (20,000-60,000 cpm) for 1 h at RT. Incubation was interrupted by filtration of the medium and rapid rinsing with ice-cold 10 mM TRIS/139 mM NaCl pH 7.4 (2×200 μl) and the filters were counted in the gamma-counter. Half maximal inhibitory concentration (IC50) values were calculated following nonlinear regression with Origin software (Microcal Origin 6.1, Northampton, MA) and a representative assay was chosen for comparison.
(In general: Loss of bound radioactivity is the signal in a displacement assay; it reports binding, not function.)

The conditions of series [1]: cited from earlier work.

Structures are written as SMILES. Where a SMILES comes first, the peptide text is derived from it. [ ]: non-standard residue; d: D form. The star is where a group is joined. DOTA = O=C(O)CN1CCN(CC(=O)O)CCN(CC(=O)*)CCN(CC(=O)O)CC1

Usually IC50 stands for the concentration needed to halve the response being measured. In the case of `CSCC[C@H](NC(=O)[C@H](Cc1c[nH]c2ccccc12)NC(=O)CNC(=O)[C@H](Cc1ccc(O)cc1)NC(=O)[C@H](C)NC(=O)[C@@H](CCC(=O)O)NC(=O)CN1CCN(CC(=O)O)CCN(CC(=O)O)CCN(CC(=O)O)CC1)C(=O)N[C@@H](CC(=O)O)C(=O)N[C@@H](Cc1ccccc1)C(N)=O` [DOTA-MG11, [1,4,7,10-tetraazacyclodocecan-1,4,7,10-tetraacetic acid^0,D-Glu^1,DesGlu^2-6]minigastrin, reference compound] ({DOTA}-[dE]AYGWMDF-NH2), at human CCK2R, the IC50 is 0.9 ± 0.5 nM. Besides, in series [1], the “biological half-life in vivo” value is recorded as “below five”.
